# In patent US20190322676A1, “CERAMIDE GALACTOSYLTRANSFERASE INHIBITORS FOR THE TREATMENT OF DISEASE” (BioMarin Pharmaceutical Inc., priority 2016, published 2019):
# pIC50: −log10 of the molar value. Counter-ions that a name gives are not always drawn.
# Molecular target: T1, human CGT (ceramide galactosyltransferase), CHO/CGT lysate (Homo sapiens, UniProt Q16880)
# T1 construct: Full-length human CGT cDNA was cloned into the BamH1/Xho1 site of pcDNA3.1 (+); expressed in transfected cells; host or cells: Chinese hamster ovary (CHO) cells; lysate prepared with M-PER
# T1 sequence (Q16880 21-541): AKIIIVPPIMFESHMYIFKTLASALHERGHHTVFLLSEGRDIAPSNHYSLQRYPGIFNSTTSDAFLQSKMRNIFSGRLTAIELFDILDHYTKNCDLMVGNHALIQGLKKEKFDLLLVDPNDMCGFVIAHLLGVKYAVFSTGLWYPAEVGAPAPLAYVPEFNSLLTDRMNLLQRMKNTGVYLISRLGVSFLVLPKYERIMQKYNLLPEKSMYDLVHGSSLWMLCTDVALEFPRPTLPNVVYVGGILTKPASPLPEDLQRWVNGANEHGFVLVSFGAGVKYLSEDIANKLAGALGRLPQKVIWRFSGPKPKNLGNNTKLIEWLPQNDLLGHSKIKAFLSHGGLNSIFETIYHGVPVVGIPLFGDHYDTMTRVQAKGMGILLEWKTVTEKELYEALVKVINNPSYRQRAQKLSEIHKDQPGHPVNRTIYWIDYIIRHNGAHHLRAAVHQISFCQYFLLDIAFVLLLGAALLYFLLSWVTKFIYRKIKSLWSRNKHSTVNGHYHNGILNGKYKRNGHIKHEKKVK
# Test: CGT enzyme assay, RapidFire/MS/MS readout (Table 1 ranges with one asterisk *)
# Format: biochemical
# Conditions: RapidFire method (range with one asterisk *)
# Procedure, shortened: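 IC50s come from variable-slope dose-response fits of internal-standard-normalized C6-NBD-dihydro-galactosylceramide, measured by RapidFire/MS/MS (ESI negative). Reactions: 1 h, 37 °C, human CGT-expressing CHO lysate (4 μg), 0.001–50 μM compound, 10 μM NBD-dihydro-ceramide, 17.5 μM UDP-galactose, 0.5% DMSO, pH 7.2; 0.01% Tween 80 added for ** values.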
row,Structure (SMILES),pIC50
1,"NC1CCN(C(=O)[C@H](NS(=O)(=O)c2ccc3c(cnn3CC3CCCC3)c2)C(F)(F)c2ccc(Cl)cc2)CC1 [Compound 99-2, (S)—N-(3-(4-aminopiperidin-1-yl)-1-(4-chlorophenyl)-1,1-difluoro-3-oxopropan-2-yl)-1-(cyclopentylmethyl)-1H-indazole-5-sulfonamide]",4.00 to 4.52
2,"CN([C@@H](C(=O)N1C2CCC1CC(N)C2)C(F)(F)c1cccc(Br)c1)S(=O)(=O)c1ccc2cc(OC3CCCC3)ccc2c1 (stereo partly drawn) [Compound 67-2, N-((2S)-3-(3-amino-8-azabicyclo[3.2.1]octan-8-yl)-1-(3-bromophenyl)-1,1-difluoro-3-oxopropan-2-yl)-6-(cyclopentyloxy)-N-methylnaphthalene-2-sulfonamide]",4.00 to 4.52
3,"NC1CC2CCC(C1)N2C(=O)[C@@H](NC(=O)C(=O)c1ccc2cc(OC3CCCC3)ccc2c1)C(F)(F)c1ccc(-c2ccc(Cl)cc2)cc1 (stereo partly drawn) [Compound 133-1, N-((2R)-3-(3-amino-8-azabicyclo[3.2.1]octan-8-yl)-1-(4′-chloro-[1,1′-biphenyl]-4-yl)-1,1-difluoro-3-oxopropan-2-yl)-2-(6-(cyclopentyloxy)naphthalen-2-yl)-2-oxoacetamide trifluoroacetate]",5.00 to 6.00
4,"NC1CCN(C(=O)[C@@H](NS(=O)(=O)c2ccc3cc(OC4CCCC4)ccc3c2)C(F)(F)c2ccc(-c3ccc(Cl)s3)cc2)CC1 [Compound 112-1, (R)—N-(3-(4-aminopiperidin-1-yl)-1-(4-(5-chlorothiophen-2-yl)phenyl)-1,1-difluoro-3-oxopropan-2-yl)-6-(cyclopentyloxy)naphthalene-2-sulfonamide trifluoroacetate]",> 6.00
5,"CCCCOc1ccc(C(F)(F)[C@H](C(=O)N2C3CCC2CC(N)C3)N(C)S(=O)(=O)c2ccc(OCC3CCCCC3)cc2)cc1 (stereo partly drawn) [Compound 79-2, N-((2S)-3-(3-amino-8-azabicyclo[3.2.1]octan-8-yl)-1-(4-butoxyphenyl)-1,1-difluoro-3-oxopropan-2-yl)-4-(cyclohexylmethoxy)-N-methylbenzenesulfonamide]",5.00 to 6.00
6,"CCCCOc1cc(C(F)(F)[C@H](NS(=O)(=O)c2ccc3cc(OC4CCCC4)ccc3c2)C(=O)N2CCC(N)CC2)ccc1Cl [Compound 126-1, (R)—N-(3-(4-aminopiperidin-1-yl)-1-(3-butoxy-4-chlorophenyl)-1,1-difluoro-3-oxopropan-2-yl)-6-(cyclopentyloxy)naphthalene-2-sulfonamide]",> 6.00
7,"NC1CCN(C(=O)[C@H](NC(=O)[C@H](O)c2ccc(OCC3CCCCC3)cc2)C(F)(F)c2ccc(-c3ccc(Cl)cc3)cc2)CC1 [Compound 141-4, (R)—N—((S)-3-(4-aminopiperidin-1-yl)-1-(4′-chloro-[1,1′-biphenyl]-4-yl)-1,1-difluoro-3-oxopropan-2-yl)-2-(4-(cyclohexylmethoxy)phenyl)-2-hydroxyacetamide trifluoroacetate]",4.00 to 4.52
8,"NC1CCN(C(=O)[C@H](NC(=O)C(=O)c2ccc(OCC3CCCCC3)cc2)C(F)(F)c2ccc(-c3ccc(Cl)cc3)cc2)CC1 [Compound 134-2, (S)—N-(3-(4-aminopiperidin-1-yl)-1-(4′-chloro-[1,1′-biphenyl]-4-yl)-1,1-difluoro-3-oxopropan-2-yl)-2-(4-(cyclohexylmethoxy)phenyl)-2-oxoacetamide trifluoroacetate]",4.00 to 4.52
9,"COc1cc(C(F)(F)[C@@H](NS(=O)(=O)c2ccc(OCC3CCCCC3)cc2)C(=O)N2C3CCC2CC(N)C3)ccc1Cl (stereo partly drawn) [Compound 125-2, N-((2S)-3-(3-amino-8-azabicyclo[3.2.1]octan-8-yl)-1-(4-chloro-3-methoxyphenyl)-1,1-difluoro-3-oxopropan-2-yl)-4-(cyclohexylmethoxy)benzenesulfonamide]",4.52 to 5.00
10,"NC1CC2CCC(C1)N2C(=O)[C@H](NS(=O)(=O)c1ccc(OCC2CCCCC2)cc1)C(F)(F)c1ccc(Oc2ccccc2)cc1 (stereo partly drawn) [Compound 84-2, N-((2S)-3-(3-amino-8-azabicyclo[3.2.1]octan-8-yl)-1,1-difluoro-3-oxo-1-(4-phenoxyphenyl)propan-2-yl)-4-(cyclohexylmethoxy) benzenesulfonamide]",4.52 to 5.00
11,"CN([C@@H](C(=O)N1C2CCC1CC(N)C2)C(F)(F)c1ccc(OCc2ccccc2)cc1)S(=O)(=O)c1ccc2cc(OC3CCCC3)ccc2c1 (stereo partly drawn) [Compound 106-2, N-((2S)-3-(3-amino-8-azabicyclo[3.2.1]octan-8-yl)-1-(4-(benzyloxy)phenyl)-1,1-difluoro-3-oxopropan-2-yl)-6-(cyclopentyloxy)-N-methylnaphthalene-2-sulfonamide]",5.00 to 6.00
12,"NC1CC2CCC(C1)N2C(=O)[C@@H](NS(=O)(=O)c1ccc(OCC2CCCCC2)cc1)C(F)(F)c1ccc(-c2ccc(Cl)s2)cc1 (stereo partly drawn) [Compound 104-1, N-((2R)-3-(3-amino-8-azabicyclo[3.2.1]octan-8-yl)-1-(4-(5-chlorothiophen-2-yl)phenyl)-1,1-difluoro-3-oxopropan-2-yl)-4-(cyclohexylmethoxy) benzenesulfonamide]",5.00 to 6.00
13,"NC1CC2CCC(C1)N2C(=O)[C@H](NS(=O)(=O)c1ccc2cc(OC3CCCC3)ccc2c1)C(F)(F)c1ccc(Oc2ccccc2)cc1 (stereo partly drawn) [Compound 86-2, N-((2S)-3-(3-amino-8-azabicyclo[3.2.1]octan-8-yl)-1,1-difluoro-3-oxo-1-(4-phenoxyphenyl)propan-2-yl)-6-(cyclopentyloxy)naphthalene-2-sulfonamide trifluoroacetate]",5.00 to 6.00
14,"NC1CC2CCC(C1)N2C(=O)[C@@H](NS(=O)(=O)c1ccc2cc(OC3CCCCC3)ccc2c1)C(F)(F)c1ccc(Br)cc1 (stereo partly drawn) [Compound 33-1, N-((2R)-3-(3-amino-8-azabicyclo[3.2.1]octan-8-yl)-1-(4-bromophenyl)-1,1-difluoro-3-oxopropan-2-yl)-6-(cyclohexyloxy)naphthalene-2-sulfonamide trifluoroacetate]",> 6.00
15,"NC1CC2CCC(C1)N2C(=O)[C@@H](NS(=O)(=O)c1ccc2cc(OC3CCCC3)ccc2c1)C(F)(F)c1ccc(OC2CCCCC2)cc1 (stereo partly drawn) [Compound 102-1, N-((2R)-3-(3-amino-8-azabicyclo[3.2.1]octan-8-yl)-1-(4-(cyclohexyloxy)phenyl)-1,1-difluoro-3-oxopropan-2-yl)-6-(cyclopentyloxy) naphthalene-2-sulfonamide]",> 6.00
16,"NC1CCN(C(=O)[C@@H](NS(=O)(=O)c2ccc(OCC3CCCCC3)cc2)C(F)(F)c2cccc(Oc3ccccc3)c2)CC1 [Compound 109-1, (R)—N-(3-(4-aminopiperidin-1-yl)-1,1-difluoro-3-oxo-1-(3-phenoxyphenyl)propan-2-yl)-4-(cyclohexylmethoxy)benzenesulfonamide trifluoroacetate]",5.00 to 6.00
17,"NC1CC2CCC(C1)N2C(=O)[C@H](NS(=O)(=O)c1ccc(OCC2CCCCC2)cc1)C(F)(F)c1cccc(-c2ccccc2)c1 (stereo partly drawn) [Compound 70-2, N-((2S)-1-([1,1′-biphenyl]-3-yl)-3-(3-amino-8-azabicyclo[3.2.1]octan-8-yl)-1,1-difluoro-3-oxopropan-2-yl)-4-(cyclohexylmethoxy) benzenesulfonamide trifluoroacetate]",5.00 to 6.00
18,"NC1CC2CCC(C1)N2C(=O)[C@@H](NS(=O)(=O)c1ccc2c(cnn2CC2CCCC2)c1)C(F)(F)c1ccc(Cl)cc1 (stereo partly drawn) [Compound 88-1, N-((2R)-3-(3-amino-8-azabicyclo[3.2.1]octan-8-yl)-1-(4-chlorophenyl)-1,1-difluoro-3-oxopropan-2-yl)-1-(cyclopentylmethyl)-1H-indazole-5-sulfonamide]",5.00 to 6.00
19,"CCCCOc1cc(C(F)(F)[C@@H](NS(=O)(=O)c2ccc3cc(OC4CCCC4)ccc3c2)C(=O)N2C3CCC2CC(N)C3)ccc1Cl (stereo partly drawn) [Compound 118-2, N-((2S)-3-(3-amino-8-azabicyclo[3.2.1]octan-8-yl)-1-(3-butoxy-4-chlorophenyl)-1,1-difluoro-3-oxopropan-2-yl)-6-(cyclopentyloxy) naphthalene-2-sulfonamide]",5.00 to 6.00
20,"NCC1CCN(C(=O)[C@@H](NS(=O)(=O)c2ccc3cc(OC4CCCC4)ccc3c2)C(F)(F)c2ccc(Br)cc2)CC1 [Compound 57-1, (R)—N-(3-(4-(aminomethyl)piperidin-1-yl)-1-(4-bromophenyl)-1,1-difluoro-3-oxopropan-2-yl)-6-(cyclopentyloxy)naphthalene-2-sulfonamide trifluoroacetate]",> 6.00
21,"N[C@H]1CCN(C(=O)[C@@H](NS(=O)(=O)c2ccc3cc(OC4CCCC4)ccc3c2)C(F)(F)c2ccc(Br)cc2)C1 [Compound 140-1, N—((R)-3-((S)-3-aminopyrrolidin-1-yl)-1-(4-bromophenyl)-1,1-difluoro-3-oxopropan-2-yl)-6-(cyclopentyloxy)naphthalene-2-sulfonamide]",5.00 to 6.00
22,"NC1CCN(C(=O)[C@H](NS(=O)(=O)c2ccc3cc(OC4CCCC4)ccc3c2)C(F)(F)c2ccc(Cl)s2)CC1 [Compound 131-2, (S)—N-(3-(4-aminopiperidin-1-yl)-1-(5-chlorothiophen-2-yl)-1,1-difluoro-3-oxopropan-2-yl)-6-(cyclopentyloxy)naphthalene-2-sulfonamide]",5.00 to 6.00
